Measurements: ChEMBL document CHEMBL1201862, “PubChem BioAssay data set” (2004)
The source made the active and inactive calls.

What was measured:
[1] = molecular target: T1, G-protein coupled receptor 35 (Homo sapiens, UniProt Q9HC97); test: GPR35 antagonists blocking zaprinast-driven arrestin recruitment, primary screen, imaging, U2OS, beta-arrestin-GFP, zaprinast agonist (AID 2058); type: functional;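 note: antagonist potency meaning inhibition of agonist-induced arrestin redistribution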
[2] = molecular target: T1, G-protein coupled receptor 35; test: SAR Analysis for the identification of Selective Antagonists of ERK1/2 Activity in GPR35-Overexpressing U2OS Cells. [Related pubchem assays: 2079, 2058 ]; type: functional, cell-based
[3] = molecular target: Tyrosine-protein phosphatase non-receptor type 12 (Homo sapiens, UniProt Q05209); test: SAR Selectivity Analysis of small molecule inhibitors of PEST using pCAP in a fluorescence assay. [Related pubchem assays (depositor defined):AID1779, AID1784, AID2135]; type: functional
Tyrosine-protein phosphatase non-receptor type 12, sequence (Q05209 whole entry): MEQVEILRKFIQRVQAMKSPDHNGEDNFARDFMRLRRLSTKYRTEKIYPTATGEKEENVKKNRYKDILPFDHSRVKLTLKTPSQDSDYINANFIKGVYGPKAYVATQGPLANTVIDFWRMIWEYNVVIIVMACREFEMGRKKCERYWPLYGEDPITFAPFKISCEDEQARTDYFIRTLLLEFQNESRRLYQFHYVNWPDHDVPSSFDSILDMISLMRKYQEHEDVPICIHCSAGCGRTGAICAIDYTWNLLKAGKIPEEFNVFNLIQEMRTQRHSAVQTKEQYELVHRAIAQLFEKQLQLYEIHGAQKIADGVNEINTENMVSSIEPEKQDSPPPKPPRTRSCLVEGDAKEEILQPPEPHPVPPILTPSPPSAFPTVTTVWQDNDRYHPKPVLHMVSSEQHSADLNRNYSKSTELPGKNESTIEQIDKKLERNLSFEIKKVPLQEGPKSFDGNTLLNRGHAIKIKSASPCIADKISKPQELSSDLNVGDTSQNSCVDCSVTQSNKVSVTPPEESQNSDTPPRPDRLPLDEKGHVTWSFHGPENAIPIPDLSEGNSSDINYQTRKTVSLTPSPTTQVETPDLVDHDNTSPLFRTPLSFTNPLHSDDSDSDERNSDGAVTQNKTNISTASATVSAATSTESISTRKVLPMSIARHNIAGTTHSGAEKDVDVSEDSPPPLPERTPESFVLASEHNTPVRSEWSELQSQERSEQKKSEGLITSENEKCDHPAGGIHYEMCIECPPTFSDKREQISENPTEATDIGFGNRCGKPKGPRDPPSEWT

[4] = molecular target: T2, Tyrosine-protein phosphatase non-receptor type 22 (Homo sapiens, UniProt Q9Y2R2); test: SAR LYP1 Fluorescent Assay using OMFP substrate for In Vitro dose response studies - Set 3. [Related pubchem assays (depositor defined):AID1779, AID1784, AID2140, AID2686]; type: functional
T2 sequence (Q9Y2R2 whole entry): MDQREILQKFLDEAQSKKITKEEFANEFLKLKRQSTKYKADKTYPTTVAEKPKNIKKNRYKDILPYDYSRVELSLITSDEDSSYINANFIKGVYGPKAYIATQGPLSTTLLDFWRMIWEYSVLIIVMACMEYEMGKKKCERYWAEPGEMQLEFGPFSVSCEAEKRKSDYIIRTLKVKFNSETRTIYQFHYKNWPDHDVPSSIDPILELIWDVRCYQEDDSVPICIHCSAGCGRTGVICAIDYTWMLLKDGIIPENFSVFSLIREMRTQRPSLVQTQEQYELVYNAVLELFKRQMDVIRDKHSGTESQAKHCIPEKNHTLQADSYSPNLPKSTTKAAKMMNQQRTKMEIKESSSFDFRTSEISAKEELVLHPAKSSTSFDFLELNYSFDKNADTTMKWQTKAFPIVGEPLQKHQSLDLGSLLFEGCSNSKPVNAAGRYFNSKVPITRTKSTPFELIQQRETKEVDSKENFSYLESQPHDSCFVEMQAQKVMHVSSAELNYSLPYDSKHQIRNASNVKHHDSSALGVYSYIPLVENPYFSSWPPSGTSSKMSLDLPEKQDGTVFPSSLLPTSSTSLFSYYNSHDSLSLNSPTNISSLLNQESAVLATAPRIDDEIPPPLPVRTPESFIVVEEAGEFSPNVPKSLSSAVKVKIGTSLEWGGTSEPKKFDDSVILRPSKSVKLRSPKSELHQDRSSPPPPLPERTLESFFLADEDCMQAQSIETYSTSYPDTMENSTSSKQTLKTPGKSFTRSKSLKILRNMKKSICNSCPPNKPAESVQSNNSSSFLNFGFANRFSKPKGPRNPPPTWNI

[5] = molecular target: T3, Tyrosine-protein phosphatase non-receptor type 7 (Homo sapiens, UniProt P35236); test: HePTP (PTPN7) phosphatase inhibitor potency, SAR follow-up, biochemical, set 2 (AID 449736); type: functional
T3 sequence (P35236 whole entry): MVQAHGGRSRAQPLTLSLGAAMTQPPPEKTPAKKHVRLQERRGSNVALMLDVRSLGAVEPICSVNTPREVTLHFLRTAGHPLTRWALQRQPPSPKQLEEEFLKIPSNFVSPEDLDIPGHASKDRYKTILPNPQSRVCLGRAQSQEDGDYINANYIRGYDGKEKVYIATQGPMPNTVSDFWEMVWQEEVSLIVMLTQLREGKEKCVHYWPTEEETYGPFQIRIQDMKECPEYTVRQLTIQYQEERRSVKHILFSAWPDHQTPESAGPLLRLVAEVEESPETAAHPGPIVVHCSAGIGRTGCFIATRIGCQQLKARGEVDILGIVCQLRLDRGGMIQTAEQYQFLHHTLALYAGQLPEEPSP

[6] = molecular target: T2, Tyrosine-protein phosphatase non-receptor type 22; test: LYP (PTPN22) phosphatase inhibitor potency, SAR follow-up, biochemical, pCAP fluorogenic substrate, fluorescence, set 3 (AID 449727); type: functional
[7] = molecular target: G-protein coupled receptor 55 (Homo sapiens, UniProt Q9Y2T6); test: GPR55 antagonists, SAR follow-up, counter-screen for GPR35 antagonist project, imaging, image-based (AID 2397); type: functional
G-protein coupled receptor 55, sequence (Q9Y2T6 whole entry): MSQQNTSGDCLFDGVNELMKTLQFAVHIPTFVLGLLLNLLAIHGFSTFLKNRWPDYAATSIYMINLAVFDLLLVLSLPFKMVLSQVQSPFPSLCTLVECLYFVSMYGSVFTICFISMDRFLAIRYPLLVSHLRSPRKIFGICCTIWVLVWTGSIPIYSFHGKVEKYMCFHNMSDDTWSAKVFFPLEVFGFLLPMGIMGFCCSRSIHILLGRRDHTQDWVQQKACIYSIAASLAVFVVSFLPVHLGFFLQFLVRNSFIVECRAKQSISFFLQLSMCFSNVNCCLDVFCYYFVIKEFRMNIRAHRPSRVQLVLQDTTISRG

[8] = molecular target: 26S proteasome non-ATPase regulatory subunit 14 (Homo sapiens, UniProt O00487); test: inhibition of proteasome subunit RPN11 – biochemical, fluorescence polarization, uHTS hits, confirmation (AID 602368); type: functional
26S proteasome non-ATPase regulatory subunit 14, sequence (O00487 whole entry): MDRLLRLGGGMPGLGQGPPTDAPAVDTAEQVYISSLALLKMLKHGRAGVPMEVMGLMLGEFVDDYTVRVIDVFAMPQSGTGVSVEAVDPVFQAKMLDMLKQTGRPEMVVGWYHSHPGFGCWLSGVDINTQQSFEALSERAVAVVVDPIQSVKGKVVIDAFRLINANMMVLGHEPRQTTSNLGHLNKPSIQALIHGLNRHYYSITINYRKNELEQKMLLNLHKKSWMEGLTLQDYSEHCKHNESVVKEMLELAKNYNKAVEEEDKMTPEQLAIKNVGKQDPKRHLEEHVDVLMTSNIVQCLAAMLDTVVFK

[9] = molecular target: 72 kDa type IV collagenase (Homo sapiens, UniProt P08253); test: Dose Response validation of uHTS RPN11 inhibitor hits using a MMP-2 Fluorescence assay.; type: functional
72 kDa type IV collagenase, sequence (P08253 whole entry): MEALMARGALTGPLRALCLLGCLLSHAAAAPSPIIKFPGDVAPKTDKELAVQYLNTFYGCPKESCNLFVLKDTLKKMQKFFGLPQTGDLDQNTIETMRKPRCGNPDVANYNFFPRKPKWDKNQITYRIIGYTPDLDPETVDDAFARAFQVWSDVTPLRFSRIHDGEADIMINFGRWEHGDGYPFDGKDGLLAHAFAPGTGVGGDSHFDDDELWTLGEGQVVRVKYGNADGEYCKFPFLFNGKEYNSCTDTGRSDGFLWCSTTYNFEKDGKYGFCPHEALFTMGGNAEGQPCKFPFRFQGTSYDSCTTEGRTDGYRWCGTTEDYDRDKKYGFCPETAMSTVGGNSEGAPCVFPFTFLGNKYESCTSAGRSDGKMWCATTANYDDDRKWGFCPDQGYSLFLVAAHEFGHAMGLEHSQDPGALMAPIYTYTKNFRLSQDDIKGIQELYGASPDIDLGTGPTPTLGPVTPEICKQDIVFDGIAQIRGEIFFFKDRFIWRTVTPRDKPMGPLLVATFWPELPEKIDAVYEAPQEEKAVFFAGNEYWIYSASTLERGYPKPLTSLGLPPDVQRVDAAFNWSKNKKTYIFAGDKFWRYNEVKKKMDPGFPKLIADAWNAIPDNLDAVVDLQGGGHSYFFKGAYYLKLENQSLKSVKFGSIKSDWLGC

[10] = molecular target: Prothrombin (Bos taurus, UniProt P00735); test: thrombin inhibition, dose response, biochemical, fluorescence polarization, uHTS hits (AID 602369); type: functional
[11] = molecular target: Induced myeloid leukemia cell differentiation protein Mcl-1 (Homo sapiens, UniProt Q07820); test: MCL1-BIM BH3 interaction inhibitors, dose response, biochemical, fluorescence polarization, BIM-BH3 peptide, 1536-well (AID 2217)
Induced myeloid leukemia cell differentiation protein Mcl-1, sequence (Q07820 whole entry): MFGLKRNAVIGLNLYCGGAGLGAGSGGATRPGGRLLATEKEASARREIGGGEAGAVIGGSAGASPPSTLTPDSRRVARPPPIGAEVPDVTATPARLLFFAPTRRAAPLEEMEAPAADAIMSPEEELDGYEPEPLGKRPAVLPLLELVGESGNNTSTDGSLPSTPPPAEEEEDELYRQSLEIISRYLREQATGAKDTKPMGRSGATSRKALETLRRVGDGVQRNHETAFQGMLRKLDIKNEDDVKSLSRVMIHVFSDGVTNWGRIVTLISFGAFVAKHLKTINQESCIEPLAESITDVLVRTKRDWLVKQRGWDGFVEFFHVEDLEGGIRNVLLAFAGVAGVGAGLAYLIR

[12] = molecular target: Bcl-2-like protein 1 (Homo sapiens, UniProt Q07817); test: BCL-XL inhibitors, dose response, selectivity assay for MCL1 inhibitor project, biochemical, fluorescence polarization, 1536-well (AID 2218)
Bcl-2-like protein 1, sequence (Q07817 whole entry): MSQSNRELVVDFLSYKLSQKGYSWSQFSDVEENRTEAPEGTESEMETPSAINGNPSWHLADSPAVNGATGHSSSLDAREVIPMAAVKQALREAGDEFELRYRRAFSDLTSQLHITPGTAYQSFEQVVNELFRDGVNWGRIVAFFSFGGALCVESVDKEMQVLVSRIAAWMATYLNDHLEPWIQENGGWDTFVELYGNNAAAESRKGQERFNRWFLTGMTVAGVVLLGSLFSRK

[13] = molecular target: Beta-adrenergic receptor kinase 1 (Homo sapiens, UniProt P25098); test: GRK2 inhibitors displacing RNA aptamer, dose response, biochemical, flow cytometry beads, FAM-aptamer, powder set 1 (AID 588720)
[14] = molecular target: T4, Carboxy-terminal domain RNA polymerase II polypeptide A small phosphatase 1 (Homo sapiens, UniProt Q9GZU7); test: inhibitors of CTDSP1, concentration-response testing, biochemical assay, absorbance-based, actives from ultra-high-throughput screening (AID 540297); type: functional
T4 sequence (Q9GZU7 whole entry): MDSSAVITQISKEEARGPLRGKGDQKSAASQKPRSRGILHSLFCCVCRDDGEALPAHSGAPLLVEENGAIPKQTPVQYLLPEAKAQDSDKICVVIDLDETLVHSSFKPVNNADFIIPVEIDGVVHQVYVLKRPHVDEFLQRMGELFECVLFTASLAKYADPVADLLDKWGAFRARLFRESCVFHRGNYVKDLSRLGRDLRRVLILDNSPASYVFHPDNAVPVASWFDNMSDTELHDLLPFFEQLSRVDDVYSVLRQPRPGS

[15] = molecular target: T5, Apoptotic protease-activating factor 1 (Homo sapiens, UniProt O14727); test: SAR analysis of small molecule Activators of Apaf-1 in a Fluorescent assay.; type: functional; details: read-out: EC50_Mean;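 note: caspase-3 cleavage of fluorogenic Rh110 DEVD substrate downstream of apoptosome activation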
T5 sequence (O14727 whole entry): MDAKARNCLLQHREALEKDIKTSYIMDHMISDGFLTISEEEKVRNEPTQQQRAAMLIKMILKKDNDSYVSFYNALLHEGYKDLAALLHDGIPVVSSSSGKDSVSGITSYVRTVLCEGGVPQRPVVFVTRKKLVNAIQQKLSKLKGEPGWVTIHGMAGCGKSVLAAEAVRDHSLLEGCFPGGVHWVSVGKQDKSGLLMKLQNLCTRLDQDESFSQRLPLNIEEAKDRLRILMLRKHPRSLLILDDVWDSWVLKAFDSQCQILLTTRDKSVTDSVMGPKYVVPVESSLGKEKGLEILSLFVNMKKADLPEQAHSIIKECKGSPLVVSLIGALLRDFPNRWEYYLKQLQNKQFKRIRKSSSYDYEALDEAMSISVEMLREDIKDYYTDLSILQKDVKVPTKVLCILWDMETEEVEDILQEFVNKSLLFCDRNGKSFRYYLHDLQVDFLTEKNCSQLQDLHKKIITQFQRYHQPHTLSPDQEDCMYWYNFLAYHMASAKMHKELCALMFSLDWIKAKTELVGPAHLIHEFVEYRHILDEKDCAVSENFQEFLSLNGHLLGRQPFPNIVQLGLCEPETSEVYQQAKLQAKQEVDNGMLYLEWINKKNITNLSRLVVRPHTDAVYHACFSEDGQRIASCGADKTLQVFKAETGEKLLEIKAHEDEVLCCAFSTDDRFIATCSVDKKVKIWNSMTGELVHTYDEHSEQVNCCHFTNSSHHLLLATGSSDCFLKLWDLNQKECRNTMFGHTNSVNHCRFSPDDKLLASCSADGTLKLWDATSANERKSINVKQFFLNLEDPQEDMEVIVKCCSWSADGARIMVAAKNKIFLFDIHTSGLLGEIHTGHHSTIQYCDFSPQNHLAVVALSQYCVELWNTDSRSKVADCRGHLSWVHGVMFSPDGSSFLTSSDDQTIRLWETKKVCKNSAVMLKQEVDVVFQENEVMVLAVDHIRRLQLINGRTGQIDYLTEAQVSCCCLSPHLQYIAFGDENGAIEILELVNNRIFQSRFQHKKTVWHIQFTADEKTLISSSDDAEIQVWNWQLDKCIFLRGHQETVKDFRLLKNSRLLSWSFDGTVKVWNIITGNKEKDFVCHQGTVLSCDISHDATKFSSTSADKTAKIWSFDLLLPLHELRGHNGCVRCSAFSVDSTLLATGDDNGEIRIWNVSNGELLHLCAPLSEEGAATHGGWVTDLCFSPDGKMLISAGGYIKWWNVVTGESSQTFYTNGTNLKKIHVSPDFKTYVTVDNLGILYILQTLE

[16] = molecular target: T6, Small ubiquitin-related modifier 1 (Homo sapiens, UniProt P63165); test: inhibitors of SUMO1 peptide binding, dose response, biochemical, fluorescence polarization, uHTS hits (AID 624382); type: functional; details: read-out: IC50_Mean
T6 sequence (P63165 whole entry): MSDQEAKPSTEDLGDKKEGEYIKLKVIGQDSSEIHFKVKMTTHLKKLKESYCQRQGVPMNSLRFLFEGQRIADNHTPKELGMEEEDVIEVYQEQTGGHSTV

[17] = molecular target: T6, Small ubiquitin-related modifier 1; test: inhibitors of SUMO1 partner interactions, dose response, biochemical, FRET (AID 624383); type: functional; details: read-out: IC50_Mean
[18] = molecular target: UDP-galactopyranose mutase (Mycobacterium tuberculosis, UniProt P9WIQ1); test: Inhibitors of Mycobacterium tuberculosis UDP-galactopyranose mutase (UGM) enzyme Measured in Biochemical System Using Plate Reader - 2105-02_Inhibitor_Dose_CherryPick_Activity. [Related pubchem assays (depositor defined):AID504439]
UDP-galactopyranose mutase, sequence (P9WIQ1 whole entry): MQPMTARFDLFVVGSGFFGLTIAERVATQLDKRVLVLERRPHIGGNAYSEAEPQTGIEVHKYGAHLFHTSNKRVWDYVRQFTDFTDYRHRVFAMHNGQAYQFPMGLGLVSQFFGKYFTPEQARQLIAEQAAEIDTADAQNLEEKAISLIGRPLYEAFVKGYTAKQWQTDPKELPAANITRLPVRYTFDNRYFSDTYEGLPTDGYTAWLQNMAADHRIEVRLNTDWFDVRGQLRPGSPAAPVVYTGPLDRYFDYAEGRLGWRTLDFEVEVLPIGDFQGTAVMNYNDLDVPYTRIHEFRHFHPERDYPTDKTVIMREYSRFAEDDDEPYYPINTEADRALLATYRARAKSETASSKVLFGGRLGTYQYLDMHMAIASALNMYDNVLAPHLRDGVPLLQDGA

[19] = molecular target: T7, Mannose-6-phosphate isomerase (Homo sapiens, UniProt P34949); test: PMI enzyme inhibitors, confirmation, biochemical, fluorescence intensity (AID 1535)
T7 sequence (P34949 whole entry): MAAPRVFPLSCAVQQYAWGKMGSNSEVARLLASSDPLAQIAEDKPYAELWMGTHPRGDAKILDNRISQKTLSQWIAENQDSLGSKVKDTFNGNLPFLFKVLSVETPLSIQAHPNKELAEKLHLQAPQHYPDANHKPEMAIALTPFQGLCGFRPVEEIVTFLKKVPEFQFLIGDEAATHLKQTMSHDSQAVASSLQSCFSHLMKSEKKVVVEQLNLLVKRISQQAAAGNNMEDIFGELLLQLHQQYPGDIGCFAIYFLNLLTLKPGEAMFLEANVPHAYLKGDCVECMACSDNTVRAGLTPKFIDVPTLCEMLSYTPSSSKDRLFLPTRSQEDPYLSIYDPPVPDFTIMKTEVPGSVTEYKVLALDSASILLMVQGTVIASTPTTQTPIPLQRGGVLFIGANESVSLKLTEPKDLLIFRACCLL

[20] = molecular target: Phosphomannomutase 2 (Homo sapiens, UniProt O15305); test: Counter screen SAR assay for PMM2 inhibitors via a fluorescence intensity assay. [Related pubchem assays (depositor defined):AID1545, AID1574]
Phosphomannomutase 2, sequence (O15305 whole entry): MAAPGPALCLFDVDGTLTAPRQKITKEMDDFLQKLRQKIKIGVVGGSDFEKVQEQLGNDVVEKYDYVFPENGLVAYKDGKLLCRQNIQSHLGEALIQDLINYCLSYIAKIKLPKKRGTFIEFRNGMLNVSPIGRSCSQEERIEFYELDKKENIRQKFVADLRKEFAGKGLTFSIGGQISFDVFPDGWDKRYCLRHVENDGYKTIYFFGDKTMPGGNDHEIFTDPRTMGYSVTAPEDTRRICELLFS

[21] = Luminescence Cell-Based Dose Retest to Confirm Inhibitors of Cancer Stem Cells. [Related pubchem assays (depositor defined):AID2717, AID2721]; type: functional; details: Homo sapiens
[22] = cytotoxicity in HMLE control line with eGFP shRNA, dose response, counter-screen for HMLE_sh_ECad selective toxicity project, cell-based, HMLE_sh_eGFP, luminescence (AID 463074); type: functional, Homo sapiens;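 note: HMLE human mammary epithelial cells expressing control shRNA against eGFP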
[23] = molecular target: Lysine-specific demethylase 4C (Homo sapiens, UniProt Q9H3R0); test: GASC-1 (JMJD2C) histone demethylase inhibitors, dose response, biochemical, DELFIA europium, cherry-picked samples (AID 488835); type: functional
Lysine-specific demethylase 4C, sequence (Q9H3R0 whole entry): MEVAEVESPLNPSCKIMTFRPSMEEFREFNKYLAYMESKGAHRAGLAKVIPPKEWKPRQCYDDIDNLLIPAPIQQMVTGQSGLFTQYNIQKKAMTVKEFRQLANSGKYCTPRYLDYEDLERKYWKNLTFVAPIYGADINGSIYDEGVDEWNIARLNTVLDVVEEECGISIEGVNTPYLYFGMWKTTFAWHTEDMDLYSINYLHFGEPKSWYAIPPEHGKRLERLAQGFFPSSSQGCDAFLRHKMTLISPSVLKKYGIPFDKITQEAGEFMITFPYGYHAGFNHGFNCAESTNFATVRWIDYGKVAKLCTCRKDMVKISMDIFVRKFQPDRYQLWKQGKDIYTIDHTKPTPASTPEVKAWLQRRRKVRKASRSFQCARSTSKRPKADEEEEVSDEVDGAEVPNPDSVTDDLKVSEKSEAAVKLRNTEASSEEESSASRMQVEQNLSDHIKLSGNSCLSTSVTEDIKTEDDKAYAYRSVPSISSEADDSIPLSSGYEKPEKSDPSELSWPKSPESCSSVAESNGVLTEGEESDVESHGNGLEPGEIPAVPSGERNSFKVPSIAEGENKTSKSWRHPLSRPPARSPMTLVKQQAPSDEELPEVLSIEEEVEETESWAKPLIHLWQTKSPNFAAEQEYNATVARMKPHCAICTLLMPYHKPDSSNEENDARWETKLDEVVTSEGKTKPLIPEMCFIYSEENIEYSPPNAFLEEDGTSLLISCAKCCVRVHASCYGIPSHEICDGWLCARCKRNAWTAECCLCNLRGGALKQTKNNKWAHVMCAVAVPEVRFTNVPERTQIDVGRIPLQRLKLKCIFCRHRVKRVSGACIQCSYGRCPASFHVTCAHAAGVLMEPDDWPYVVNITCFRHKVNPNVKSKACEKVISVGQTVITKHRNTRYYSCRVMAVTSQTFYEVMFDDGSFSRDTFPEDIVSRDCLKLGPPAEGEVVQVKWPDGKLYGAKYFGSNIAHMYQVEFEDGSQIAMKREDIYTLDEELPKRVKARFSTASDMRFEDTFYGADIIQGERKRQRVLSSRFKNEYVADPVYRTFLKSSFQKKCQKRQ

T1 sequence (Q9HC97 whole entry): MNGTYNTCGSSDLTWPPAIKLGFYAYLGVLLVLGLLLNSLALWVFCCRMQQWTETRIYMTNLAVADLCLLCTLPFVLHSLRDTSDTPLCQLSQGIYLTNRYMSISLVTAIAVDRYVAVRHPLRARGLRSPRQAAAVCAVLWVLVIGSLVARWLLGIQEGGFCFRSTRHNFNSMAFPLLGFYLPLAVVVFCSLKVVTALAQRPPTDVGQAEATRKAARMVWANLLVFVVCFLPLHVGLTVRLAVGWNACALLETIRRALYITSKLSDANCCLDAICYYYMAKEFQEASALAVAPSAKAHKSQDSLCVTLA

SMILES: O=C(CCCN1C(=O)/C(=C/c2ccc3c(c2)OCO3)SC1=S)Nc1ccc(C(=O)O)cc1
- IC50 [1]: 0.563 µM (active)
- IC50 [2]: 4.07 µM (active)
- IC50 [3]: 12.1 µM (active)
- IC50 [4]: 91.4 µM (active)
- IC50 [5]: 1.99 µM (active)
- IC50 [6]: 47 µM (active)
- IC50 [7]: 20 µM (inactive)
- IC50 [8]: 40.7 µM (active)
- IC50 [9]: 43 µM (active)
- IC50 [10]: 38.9 µM (active)

SMILES: COc1ccc(Cl)cc1NC(=O)CCS(=O)(=O)c1ccc(Br)cc1
- IC50 [11]: 11.4 µM (not active)
- IC50 [12]: 32.2 µM (not active)
- EC50 [13]: 0.779 µM (active)
- IC50 [14]: 4.16 µM (active)
- EC50 [15]: 17.4 µM (active)
- IC50 [8]: 10.9 µM (active)
- IC50 [9]: > 100 µM (inactive)
- IC50 [10]: > 100 µM (inactive)
- IC50 [16]: > 66.6 µM (inactive)
- IC50 [17]: 5.02 µM (active)

SMILES: O=C(NCc1ccc(F)cc1)c1cccc2c1C(=O)c1ccc(N3CCC(Cc4ccccc4)CC3)cc1S2(=O)=O
- AC50 [18]: 5.84 µM (active)

SMILES: COc1cc([N+](=O)[O-])ccc1/N=c1\ssnc1Cl
- IC50 [19]: 3.25 µM (active)
- IC50 [20]: > 100 µM (inactive)

SMILES: CN1CCN(/N=C/c2ccc(OCc3ccccc3)cc2)CC1
- AC50 [21]: 5.25 µM (active)
- AC50 [22]: 56 µM (active)

SMILES: c1cc2c(cc1-c1csc(NNC3=NCCCCC3)n1)OCCO2
- AC50 [23]: 17 µM (active)
